Our source for the IC50 values is paper PMC4236121 (PLoS ONE, 2014).

Where no end group is shown, it is not given here.

As usually defined, the IC50 is the concentration at which inhibition is half-maximal.

One test addresses T1, DQ8 protein (HLA-DQ8: DQA1*03:01/DQB1*03:02) (Homo sapiens, UniProt P01909+P01920, A209T/A45G/C70Q/D89A/DUP78-78/E183D/E77G/F237L/G63E/H199R/I129T/K197E/L178F/L74F/L98V/Q57E/Q76R/S185I/S97I/T217I/T49S/V73L/Y58L).
T1 construct: made in house; host or cells: insect cells (Drosophila S2 is named only for the biotinylated tetramer preparation)
In words: Peptide binding competition.
Conditions: not given
Here is the method: Recombinant DQ8 protein was produced as previously described. Briefly, soluble DQ8 was purified from insect cell culture supernatants by affinity chromatography and dialyzed against citric/phosphate storage buffer, pH 5.4. For the preparation of HLA class II tetramers, DQ8 protein was in vivo biotinylated in Drosophila S2 cells prior to harvest and dialyzed into citric/phosphate buffer. The biotinylated monomer was loaded with 0.2 mg/ml of peptide by incubating at 37°C for 72 h in the presence of 0.2 mg/ml n-Dodecyl-β-maltoside and 1 mM Pefabloc SC (Sigma–Aldrich, St. Louis, MO). Peptide loaded monomers were subsequently conjugated into tetramers using R-PE streptavidin (Biosource International, Camarillo, CA) at a molar ratio of 8∶1.
Peptide binding curves were simulated by non-linear regression with Prism software (Version 5, GraphPad Software Inc.) using a sigmoidal dose–response curve.
The molecule `CSCC[C@H](NC(=O)[C@H](CC(=O)O)NC(=O)[C@H](CC(C)C)NC(=O)CNC(=O)[C@@H](NC(=O)[C@H](CO)NC(=O)[C@H](CC(C)C)NC(=O)[C@H](CCC(N)=O)NC(=O)[C@H](CC(N)=O)NC(=O)[C@H](Cc1ccccc1)NC(=O)[C@H](Cc1ccc(O)cc1)NC(=O)[C@H](CCCNC(=N)N)NC(=O)[C@@H]1CCCN1)[C@@H](C)O)C(=O)N[C@H](C(=O)NCC(=O)O)C(C)C` [GAD65 176–190] gave an IC50 of more than 50000 nM.
The molecule “TAKAMEQMAGSSEQAAEAME [H1MP185–204, reference compound]” gave a half-maximal inhibitory concentration (IC50) of 1400 nM.
On the same count and under the same terms, with TYEIAPVFVLLEYVT [GAD65 206–220] the figure was 1500 nM.

The test is the same for the next values; noted with them: competition with 0.04 µM biotinylated GAD65_250–266 index peptide in wells coated with recombinant DQ8 protein; europium-streptavidin, time resolved fluorometer; sigmoidal dose-response fit; read-out: IC50 (binding to DQ8).
For AKGTTGFEAHVDKCL [GAD65 461–475], the IC50 was more than 50000 nM.
On the same count and under the same terms, the value for FQQDKHYDLSYDTGD [GAD65 427–441] was more than 50000 nM.
The same measure, in the same setting: with YIPPSLRTLEDNEE [GAD65 508–521] the figure was more than 50000 nM.
Still for that read-out and setting: with YVVKSFDRSTKVIDFHYPNE [GAD65 121–140] the figure was 1600 nM.
